Results from KR20230001519A, “근위 단백질 변형 반응을 이용한 신규한 약물 결합 단백질의 동정” (서울대학교산학협력단, priority 2021, dated 2023).
Counter-ions that a name gives are not always drawn. Blank lines part the entries; values can stand above or below the compound they belong to.

Key:
[1] = test system: Ba/F3 cells (Ba/F3 세포); experiment: CCK-8 growth inhibition, Ba/F3; assay type: cell-based, mouse; conditions: Ba/F3, 72 h
[2] = test system: HaloTag protein (할로택 단백질); experiment: In vitro competition assay of HaloTag ligand (dansyl-HTL, in-gel fluorescence); assay type: binding; conditions: competition with dansyl-HTL; purified HaloTag 10 μM, compound 10 μM; data not shown
[3] = test system: K562 cells (K562 세포); experiment: CCK-8 growth inhibition, K562; assay type: cell-based, human; conditions: K562, 72 h
[4] = biological target: T1, RIOK1 (Homo sapiens, UniProt Q9BRS2); experiment: PROCID mass analysis, RIOK1; assay type: cell-based; conditions: RIOK1, K562
T1 construct: endogenous in cells; host or cells: K562 stably expressing HT-V5-TurbID
T1 sequence (Q9BRS2 1-568): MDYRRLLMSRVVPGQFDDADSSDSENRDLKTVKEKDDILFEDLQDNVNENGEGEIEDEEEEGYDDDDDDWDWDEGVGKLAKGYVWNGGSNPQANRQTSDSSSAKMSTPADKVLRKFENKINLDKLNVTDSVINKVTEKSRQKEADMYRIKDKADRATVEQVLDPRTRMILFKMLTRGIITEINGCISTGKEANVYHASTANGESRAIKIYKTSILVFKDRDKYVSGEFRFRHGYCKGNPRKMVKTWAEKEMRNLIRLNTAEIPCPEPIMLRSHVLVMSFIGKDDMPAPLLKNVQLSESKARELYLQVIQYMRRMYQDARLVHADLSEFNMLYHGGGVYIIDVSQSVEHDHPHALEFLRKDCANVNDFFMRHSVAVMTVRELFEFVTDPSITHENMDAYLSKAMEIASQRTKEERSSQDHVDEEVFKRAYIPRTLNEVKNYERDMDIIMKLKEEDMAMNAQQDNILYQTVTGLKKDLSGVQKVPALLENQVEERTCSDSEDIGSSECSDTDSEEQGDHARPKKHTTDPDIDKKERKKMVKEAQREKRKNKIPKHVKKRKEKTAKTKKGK

[5] = biological target: T2, TOM20-KDABL1 (Homo sapiens, UniProt P00519); experiment: In cellulo mitochondrial translocation of HT-TurbID to TOM20-KDABL1; assay type: cell-based; conditions: data not shown
T2 construct: KDABL1, 아미노산 239-512, Uniprot ID: P00519; expressed in transfected cells
T2 sequence (P00519 239-512): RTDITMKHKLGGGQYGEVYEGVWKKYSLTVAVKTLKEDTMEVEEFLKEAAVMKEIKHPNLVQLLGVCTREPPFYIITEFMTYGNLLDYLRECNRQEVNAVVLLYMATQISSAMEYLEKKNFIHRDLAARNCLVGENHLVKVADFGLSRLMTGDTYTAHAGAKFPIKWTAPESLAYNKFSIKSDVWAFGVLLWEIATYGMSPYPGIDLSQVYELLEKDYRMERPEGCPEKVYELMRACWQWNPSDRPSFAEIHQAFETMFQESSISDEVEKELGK

[6] = biological target: T3, ABL2 (Homo sapiens, UniProt P42684); experiment: PROCID mass analysis, ABL2; assay type: cell-based; conditions: ABL2, K562
T3 construct: endogenous in cells; host or cells: K562 stably expressing HT-V5-TurbID

[7] = biological target: T4, SMARCA2 (Homo sapiens, UniProt P51531); experiment: PROCID mass analysis, SMARCA2; assay type: cell-based
T4 construct: endogenous in cells; host or cells: K562 stably expressing HT-V5-TurbID

[8] = biological target: T5, BTK (Mus musculus, UniProt P35991); experiment: PL-IP biotinylation of BTK-mCherry; assay type: cell-based
[9] = biological target: T5, BTK; experiment: In cellulo translocation assay, BTK-mCherry to HT-TurbID-MoA; assay type: cell-based; parameters: host or cells: U2OS (translocation, A16; reproduced in COS-7)
[10] = test system: ABL1; experiment: PROCID mass analysis, ABL1; assay type: cell-based, Homo sapiens; conditions: ABL1, K562
[11] = biological target: T6, KDABL1 (Homo sapiens, UniProt P00519); experiment: Proximity biotinylation of HA-KDABL1 by HT-TurbID (PL-IP, western blot); assay type: cell-based; parameters: KDABL1, 아미노산 239-512, Uniprot ID: P00519; expressed in transfected cells; host or cells: HEK293T (PL-IP, A6); conditions: HEK293T, 500 nM, 3 h; biotin 100 μM, 30 min; SA-HRP western blot
T6 sequence (P00519 239-512): T2 sequence (P00519 239-512)

[12] = biological target: T7, BTK (Homo sapiens, UniProt Q06187); experiment: PROCID mass analysis, BTK; assay type: cell-based
T7 construct: endogenous in cells; host or cells: K562 stably expressing HT-V5-TurbID

[13] = biological target: T6, KDABL1; experiment: In cellulo translocation assay of KDABL1 to mitochondrial HT-TurbID-MoA (confocal); assay type: cell-based; parameters: KDABL1, 아미노산 239-512, Uniprot ID: P00519; expressed in transfected cells; host or cells: U2OS (translocation, A4); conditions: U2OS, 500 nM, 3 h
[14] = biological target: T8, TOM20-HA-KDABL1 (Homo sapiens, UniProt P00519); experiment: Proximity biotinylation of TOM20-HA-KDABL1 by HT-TurbID; assay type: cell-based; conditions: HT-TurbID in cytosol; data not shown
T8 construct: KDABL1, 아미노산 239-512, Uniprot ID: P00519; expressed in transfected cells
T8 sequence (P00519 239-512): T2 sequence (P00519 239-512)

[15] = biological target: T9, CSK (Homo sapiens, UniProt P41240); experiment: In cellulo translocation assay, CSK-EGFP to HT-TurbID-MoA; assay type: cell-based; parameters: host or cells: U2OS (translocation, A17; reproduced in COS-7)
[16] = biological target: T9, CSK; experiment: PL-IP biotinylation of CSK-EGFP; assay type: cell-based
[17] = test system: dasatinib binding proteins of K562 cells (K562 세포의 다사티닙 결합 단백질); experiment: PROCID mass analysis of biotinylated proteins (dasatinib interactors, group I); assay type: cell-based, Homo sapiens; conditions: K562, 500 nM, 3 h
[18] = biological target: T9, CSK; experiment: PROCID mass analysis, CSK; assay type: cell-based; parameters: endogenous in cells; host or cells: K562 stably expressing HT-V5-TurbID
[19] = test system: HT-TurbID stably expressing K562 cells (HT-TurbID를 안정적으로 발현하는 K562 세포주); experiment: Biotinylation in K562 cells stably expressing HT-TurbID (streptavidin-HRP western blot); assay type: cell-based, human
[20] = biological target: T9, CSK; parameters: host or cells: U2OS (translocation, A17; reproduced in COS-7); HEK293T (PL-IP, A19); conditions: in vitro characterization; cited from earlier work
[21] = biological target: T10, ABDSMARCA2 (Homo sapiens, UniProt P51531); experiment: Translocation and PL-IP assays with ATP binding domain of SMARCA2; assay type: cell-based; conditions: concluded from translocation of ABDSMARCA2 to mitochondria-targeted HT-TurbID
T10 construct: ABD SMARCA2(736-901aa 헬리카제-ATP 결합 도메인)-HA; expressed in transfected cells; host or cells: HEK293-AD

[22] = HEK293T, 3 h, SA-HRP western blot

T5 sequence (P35991 whole entry): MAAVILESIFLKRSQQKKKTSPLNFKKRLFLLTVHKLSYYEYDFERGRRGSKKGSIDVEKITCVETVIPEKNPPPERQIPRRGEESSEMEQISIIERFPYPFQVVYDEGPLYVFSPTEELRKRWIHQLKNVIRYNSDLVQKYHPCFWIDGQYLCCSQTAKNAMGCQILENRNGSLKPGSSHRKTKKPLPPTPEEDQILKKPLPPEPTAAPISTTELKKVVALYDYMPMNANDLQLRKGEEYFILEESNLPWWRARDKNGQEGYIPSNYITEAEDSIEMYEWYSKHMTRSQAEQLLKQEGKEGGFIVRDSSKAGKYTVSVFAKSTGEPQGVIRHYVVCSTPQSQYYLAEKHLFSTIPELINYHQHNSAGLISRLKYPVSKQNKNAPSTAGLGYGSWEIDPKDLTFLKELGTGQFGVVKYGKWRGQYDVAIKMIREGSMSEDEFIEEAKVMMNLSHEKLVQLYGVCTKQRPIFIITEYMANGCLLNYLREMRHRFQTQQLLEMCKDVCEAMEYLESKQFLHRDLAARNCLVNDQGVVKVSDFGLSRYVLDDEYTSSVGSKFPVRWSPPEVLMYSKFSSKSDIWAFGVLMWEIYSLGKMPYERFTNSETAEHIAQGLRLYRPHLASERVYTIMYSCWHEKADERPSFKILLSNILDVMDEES
T7 sequence (Q06187 whole entry): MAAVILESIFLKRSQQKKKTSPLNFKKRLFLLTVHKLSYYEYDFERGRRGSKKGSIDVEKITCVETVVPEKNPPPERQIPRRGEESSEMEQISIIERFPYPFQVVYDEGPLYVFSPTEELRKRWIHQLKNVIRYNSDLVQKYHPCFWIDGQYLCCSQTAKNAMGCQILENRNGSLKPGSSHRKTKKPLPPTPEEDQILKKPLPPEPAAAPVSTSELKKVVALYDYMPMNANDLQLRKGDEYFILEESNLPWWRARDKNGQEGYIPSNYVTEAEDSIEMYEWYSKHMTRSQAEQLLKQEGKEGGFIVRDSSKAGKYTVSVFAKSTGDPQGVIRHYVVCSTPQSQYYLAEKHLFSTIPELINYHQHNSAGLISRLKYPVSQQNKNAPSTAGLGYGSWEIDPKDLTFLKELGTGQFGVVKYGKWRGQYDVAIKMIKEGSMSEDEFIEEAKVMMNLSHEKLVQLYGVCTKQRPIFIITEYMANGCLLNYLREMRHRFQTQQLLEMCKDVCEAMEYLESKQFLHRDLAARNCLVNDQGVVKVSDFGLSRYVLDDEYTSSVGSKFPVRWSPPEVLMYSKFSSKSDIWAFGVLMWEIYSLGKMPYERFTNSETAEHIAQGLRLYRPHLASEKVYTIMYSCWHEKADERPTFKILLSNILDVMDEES
T4 sequence (P51531 whole entry): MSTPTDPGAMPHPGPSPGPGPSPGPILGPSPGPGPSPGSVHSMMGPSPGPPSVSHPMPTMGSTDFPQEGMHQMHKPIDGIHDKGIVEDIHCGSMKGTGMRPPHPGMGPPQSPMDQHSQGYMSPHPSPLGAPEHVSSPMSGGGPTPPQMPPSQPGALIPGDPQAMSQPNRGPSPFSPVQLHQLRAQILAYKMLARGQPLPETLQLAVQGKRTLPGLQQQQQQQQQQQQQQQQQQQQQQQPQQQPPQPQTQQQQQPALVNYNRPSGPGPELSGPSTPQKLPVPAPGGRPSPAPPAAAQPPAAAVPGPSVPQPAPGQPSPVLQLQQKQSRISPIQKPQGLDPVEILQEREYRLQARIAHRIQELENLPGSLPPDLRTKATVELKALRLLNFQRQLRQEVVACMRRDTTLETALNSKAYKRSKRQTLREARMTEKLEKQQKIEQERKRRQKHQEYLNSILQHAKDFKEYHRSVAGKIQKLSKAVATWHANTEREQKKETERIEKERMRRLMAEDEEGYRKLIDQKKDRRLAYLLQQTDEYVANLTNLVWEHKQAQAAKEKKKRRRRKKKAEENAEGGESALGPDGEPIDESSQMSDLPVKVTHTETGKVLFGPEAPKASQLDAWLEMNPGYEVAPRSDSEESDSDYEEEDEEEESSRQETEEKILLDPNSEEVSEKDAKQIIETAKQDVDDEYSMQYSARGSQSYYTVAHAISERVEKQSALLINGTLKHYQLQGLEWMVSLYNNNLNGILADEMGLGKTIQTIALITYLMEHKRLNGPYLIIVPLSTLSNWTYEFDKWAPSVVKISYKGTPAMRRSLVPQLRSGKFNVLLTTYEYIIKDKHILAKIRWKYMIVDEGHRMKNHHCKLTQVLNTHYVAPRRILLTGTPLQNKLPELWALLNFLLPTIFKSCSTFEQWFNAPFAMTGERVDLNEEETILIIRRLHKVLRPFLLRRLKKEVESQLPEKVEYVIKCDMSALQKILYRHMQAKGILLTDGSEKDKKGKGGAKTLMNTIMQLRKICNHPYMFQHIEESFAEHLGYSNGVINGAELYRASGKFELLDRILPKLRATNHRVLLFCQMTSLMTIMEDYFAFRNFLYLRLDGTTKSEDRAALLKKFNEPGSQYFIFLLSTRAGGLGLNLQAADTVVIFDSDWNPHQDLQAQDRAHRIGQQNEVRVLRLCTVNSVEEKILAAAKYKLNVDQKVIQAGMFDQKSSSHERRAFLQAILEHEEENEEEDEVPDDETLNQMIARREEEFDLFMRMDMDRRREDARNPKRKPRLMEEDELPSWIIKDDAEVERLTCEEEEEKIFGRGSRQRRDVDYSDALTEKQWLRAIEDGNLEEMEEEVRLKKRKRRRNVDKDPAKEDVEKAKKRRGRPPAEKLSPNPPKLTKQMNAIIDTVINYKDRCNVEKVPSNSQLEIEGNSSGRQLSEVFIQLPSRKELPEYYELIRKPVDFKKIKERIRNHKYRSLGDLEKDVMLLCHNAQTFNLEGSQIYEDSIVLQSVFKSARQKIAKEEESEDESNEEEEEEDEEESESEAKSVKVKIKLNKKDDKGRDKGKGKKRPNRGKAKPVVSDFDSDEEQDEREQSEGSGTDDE
T10 sequence (P51531 736-901): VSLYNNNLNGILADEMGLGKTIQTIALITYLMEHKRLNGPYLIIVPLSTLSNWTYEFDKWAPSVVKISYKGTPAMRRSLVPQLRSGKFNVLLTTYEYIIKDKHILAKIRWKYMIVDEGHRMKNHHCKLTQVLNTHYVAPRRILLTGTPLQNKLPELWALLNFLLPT
T3 sequence (P42684 whole entry): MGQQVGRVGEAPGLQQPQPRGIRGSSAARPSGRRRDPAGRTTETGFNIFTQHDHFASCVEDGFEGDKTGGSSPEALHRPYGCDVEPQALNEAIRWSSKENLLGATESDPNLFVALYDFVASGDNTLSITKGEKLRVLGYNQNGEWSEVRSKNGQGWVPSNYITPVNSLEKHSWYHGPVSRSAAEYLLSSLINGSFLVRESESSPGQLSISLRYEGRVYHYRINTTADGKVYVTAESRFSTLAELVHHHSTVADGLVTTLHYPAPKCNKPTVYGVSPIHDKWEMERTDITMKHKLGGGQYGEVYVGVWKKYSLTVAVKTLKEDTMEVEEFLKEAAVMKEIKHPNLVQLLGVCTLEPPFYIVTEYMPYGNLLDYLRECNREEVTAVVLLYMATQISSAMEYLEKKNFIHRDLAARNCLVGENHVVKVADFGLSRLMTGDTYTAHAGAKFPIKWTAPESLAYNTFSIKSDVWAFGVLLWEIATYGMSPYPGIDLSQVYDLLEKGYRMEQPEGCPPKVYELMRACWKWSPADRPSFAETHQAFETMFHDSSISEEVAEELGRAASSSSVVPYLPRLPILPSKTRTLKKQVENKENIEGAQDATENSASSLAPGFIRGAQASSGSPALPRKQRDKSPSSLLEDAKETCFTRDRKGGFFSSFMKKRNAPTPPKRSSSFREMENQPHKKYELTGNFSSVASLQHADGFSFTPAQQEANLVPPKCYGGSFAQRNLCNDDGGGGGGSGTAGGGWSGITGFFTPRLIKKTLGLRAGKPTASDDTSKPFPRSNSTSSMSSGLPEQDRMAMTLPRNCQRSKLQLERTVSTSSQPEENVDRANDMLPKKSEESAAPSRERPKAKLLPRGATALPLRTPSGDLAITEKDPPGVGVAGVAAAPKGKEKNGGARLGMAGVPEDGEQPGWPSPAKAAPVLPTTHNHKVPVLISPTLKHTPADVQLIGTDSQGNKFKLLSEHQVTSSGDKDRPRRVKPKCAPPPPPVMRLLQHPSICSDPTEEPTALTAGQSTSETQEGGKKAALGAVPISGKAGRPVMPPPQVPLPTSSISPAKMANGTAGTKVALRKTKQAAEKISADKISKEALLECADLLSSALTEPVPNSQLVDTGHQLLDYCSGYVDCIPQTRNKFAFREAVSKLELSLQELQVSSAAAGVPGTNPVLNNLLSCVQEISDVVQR

Structure (SMILES): Cc1nc(Nc2ncc(C(=O)Nc3c(C)cccc3Cl)s2)cc(N2CCN(CCOC(=O)NCCOCCOCCOCCCCCCCl)CC2)n1 [DA3, 2-(4-(6-((5-((2-chloro-6-methylphenyl)carbamoyl)thiazol-2-yl)amino)-2-methylpyrimidin-4-yl)piperazin-1-yl)ethyl(2-(2-(2-((6-chlorohexyl)oxy)ethoxy)ethoxy)ethyl)carbamate trifluoroacetate salt]
GI50 [1]: 서브마이크로몰 범위 | binding to HaloTag [2]: 할로택에 잘 결합한다 | GI50 [3]: 서브마이크로몰 범위

Structure (SMILES): Cc1nc(Nc2ncc(C(=O)Nc3c(C)cccc3Cl)s2)cc(N2CCN(CCOC(=O)NCCOCCOCCOCCOCCOCCCCCCCl)CC2)n1 [DA5, 2-(4-(6-((5-((2-chloro-6-methylphenyl)carbamoyl)thiazol-2-yl)amino)-2-methylpyrimidin-4-yl)piperazin-1-yl)ethyl(21-chloro-3,6,9,12,15-pentaoxahenicosyl)carbamate trifluoroacetate salt]
biotinylation by HT-TurbID in DA5 treated sample [4]: 고도로 바이오틴화 | mitochondrial translocation of HT-TurbID to TOM20-KDABL1 [5]: 미토콘드리아 전위가 확인되었다 | biotinylation by HT-TurbID in DA5 treated sample [6]: 고도로 바이오틴화 | GI50 [1]: 서브마이크로몰 범위 | biotinylation by HT-TurbID in DA5 treated sample ([7]; SMARCA2, K562): 고도로 바이오틴화 | fold change (FC) of biotinylation ([7]; SMARCA2, K562, DA5 treated vs control, highest fold change): 5.14 | DA5-dependent biotinylation ([8]; BTK, HT-TurbID-MoA instead of HT-TurbID, data not shown): 그대로 재현되었다 | co-purification of HT-TurbID with bait protein ([8]; BTK-mCherry, anti-HA pulldown): DA5 처리 샘플에서만 미끼 단백질과 공동 정제되었다 | biotinylation of enriched BTK-mCherry [8, 22]: DA5 처리 하에서만 바이오틴화되었다 | DA5-dependent translocation ([9]; BTK, COS-7, data not shown): 그대로 재현되었다 | Pearson's correlation coefficient ([9]; BTK, U2OS, after DA5 treatment): 급격히 증가 | translocation from cytosol to mitochondria ([9]; BTK-mCherry, U2OS, 500 nM, 3 h): 세포질에서 미토콘드리아로 전위되는 것이 확인되었다 | biotinylation by HT-TurbID in DA5 treated sample [10]: 고도로 바이오틴화 | biotinylation of KDABL1 by HT-TurbID [11]: DA5로 처리되었을 때만 KDABL1이 HT-TurbID에 의해 바이오틴화 된다 | biotinylation by HT-TurbID in DA5 treated sample ([12]; K562): 고도로 바이오틴화 | biotinylated lysine residues ([12]; MS analysis): 다수의 라이신 잔기가 DA5 처리된 HT-TurbID에 의해 바이오틴화 된다 | translocation of KDABL1 from cytosol to mitochondria [13]: KDABL1의 효율적인 전위 | biotinylation of TOM20-HA-KDABL1 by HT-TurbID [14]: 재현 가능한 DA5 의존성 바이오틴화를 관찰 | DA5-dependent translocation ([15]; CSK, COS-7, data not shown): 그대로 재현되었다 | Pearson's correlation coefficient ([15]; CSK, U2OS, after DA5 treatment): 급격히 증가 | translocation from cytosol to mitochondria ([15]; CSK-EGFP, U2OS, 500 nM, 3 h): 세포질에서 미토콘드리아로 전위되는 것이 확인되었다 | DA5-dependent biotinylation ([16]; CSK, HT-TurbID-MoA instead of HT-TurbID, data not shown): 그대로 재현되었다 | co-purification of HT-TurbID with bait protein ([16]; CSK-EGFP, anti-HA pulldown): DA5 처리 샘플에서만 미끼 단백질과 공동 정제되었다 | biotinylation of enriched CSK-EGFP [16, 22]: DA5 처리 하에서만 바이오틴화되었다 | binding to HaloTag [2]: 할로택에 잘 결합한다 | number of proteins reproducibly biotinylated only on DA5 treatment ([17]; biotin 50 μM 30 min, P < 0.05, Log2(FC) > 1.2): 33 | number of proteins selected as dasatinib interactors (group I) ([17]; includes SMARCA2): 34 | biotinylation by HT-TurbID in DA5 treated sample ([18]; K562): 고도로 바이오틴화 | biotinylated lysine residues ([18]; MS analysis): 다수의 라이신 잔기가 DA5 처리된 HT-TurbID에 의해 바이오틴화 된다 | biotinylation reaction [19]: 강력한 바이오틴화 반응 | streptavidin-HRP western blot pattern compared with DA and DMSO [19]: 미묘하게 차이가 있었다 | GI50 [3]: 서브마이크로몰 범위

physical binding affinity of ABDSMARCA2 for dasatinib [21]: 물리적 결합 친화성을 가지고 있으며
Structure (SMILES): Cc1nc(Nc2ncc(C(=O)Nc3c(C)cccc3Cl)s2)cc(N2CCN(CCO)CC2)n1 [다사티닙]
binding affinity for dasatinib [20]: 다사티닙에 대한 결합 친화력이 있음 | biotinylation reaction [19]: 강력한 바이오틴화 반응
